Data: PubChem BioAssay AID248 (DTP/NCI, 2004)
Inconclusive results and toxic doses are left out. Cut-off read from the data, not from the text of the source: active = T/C of 150% or more; inactive = T/C below 125%.

Tested on: L1210 leukemia ip in BDF1 mice, survival T/C
Experiment: NCI In Vivo Anticancer Drug Screen. Data for tumor model L1210 Leukemia (intraperitoneal) in B6D2F1 (BDF1) mice
Details: endpoint: mean survival time, higher = longer survival
Outline: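 Each compound was tested against a transplantable tumor grown in mice. The endpoint was survival, with treated animals benchmarked against vehicle controls as a simple ratio.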

[1] = dose: 100.0 mg/kg/injection, schedule: Q04DX003 (ip), vehicle: Klucel (hydroxypropylcellulose) (HPC)
[2] = dose: 200.0 mg/kg/injection, schedule: Q04DX003 (ip), vehicle: Klucel (hydroxypropylcellulose) (HPC)
[3] = dose: 400.0 mg/kg/injection, schedule: Q04DX003 (ip), vehicle: Klucel (hydroxypropylcellulose) (HPC)
[4] = dose: 100.0 mg/kg/injection, schedule: Q04DX003 (ip), vehicle: saline with Tween-80
[5] = dose: 200.0 mg/kg/injection, schedule: Q04DX003 (ip), vehicle: saline with Tween-80
[6] = dose: 400.0 mg/kg/injection, schedule: Q04DX003 (ip), vehicle: saline with Tween-80
[7] = dose: 100.0 mg/kg/injection, schedule: Q01DX009 (ip), vehicle: Klucel (hydroxypropylcellulose) (HPC)
[8] = dose: 200.0 mg/kg/injection, schedule: Q01DX009 (ip), vehicle: Klucel (hydroxypropylcellulose) (HPC)
[9] = dose: 100.0 mg/kg/injection, schedule: Q04DX002 (ip), vehicle: saline with Tween-80
[10] = dose: 200.0 mg/kg/injection, schedule: Q04DX002 (ip), vehicle: saline with Tween-80
[11] = dose: 100.0 mg/kg/injection, schedule: Q01DX009 (ip), vehicle: saline with Tween-80
[12] = dose: 200.0 mg/kg/injection, schedule: Q01DX009 (ip), vehicle: saline with Tween-80
[13] = dose: 50.0 mg/kg/injection, schedule: Q01DX009 (ip), vehicle: saline with Tween-80
[14] = dose: 75.0 mg/kg/injection, schedule: Q01DX001 (ip), vehicle: saline

Measured: T/C

O=C1OCCN1S(=O)(=O)c1ccc(Cl)cc1
inactive: [1] 104 % of control | [2] 95 % of control | [3] 96 % of control

COC(=O)c1c(C(=O)N(C)C)n[nH]c1C1OCC2OC(C)(C)OC21 (centres undefined)
inactive: dose: 100.0 mg/kg/injection, schedule: Q01DX005 (ip), vehicle: saline 100 % of control | dose: 200.0 mg/kg/injection, schedule: Q01DX005 (ip), vehicle: saline 100 % of control

Cc1c(Cl)cc(Cl)c(N)c1Cl
inactive: [4] 100 % of control | [5] 98 % of control | [6] 96 % of control

C#CCOC(=O)Nc1ccccc1
inactive: dose: 50.0 mg/kg/injection, schedule: Q01DX009 (ip), vehicle: Klucel (hydroxypropylcellulose) (HPC) 100 % of control | [7] 100 % of control | [8] 107 % of control

O=C1CC2(C(=O)N1c1ccccc1)C1C(=O)N(c3ccccc3)C(=O)C1C1C3C(=CCC4C(=O)N(c5ccccc5)C(=O)C43)C=CN12 (centres undefined)
inactive: [9] 105 % of control | [10] 98 % of control | dose: 400.0 mg/kg/injection, schedule: Q04DX002 (ip), vehicle: saline with Tween-80 102 % of control

CN(C)c1ccc(/C=C/c2ccc3ccccc3n2)cc1
inactive: dose: 100.0 mg/kg/injection, schedule: Q01DX001 (ip), vehicle: Klucel (hydroxypropylcellulose) (HPC) 100 % of control | [7] 103 % of control | dose: 200.0 mg/kg/injection, schedule: Q01DX001 (ip), vehicle: Klucel (hydroxypropylcellulose) (HPC) 97 % of control | [8] 100 % of control | dose: 400.0 mg/kg/injection, schedule: Q01DX001 (ip), vehicle: Klucel (hydroxypropylcellulose) (HPC) 101 % of control | dose: 400.0 mg/kg/injection, schedule: Q01DX009 (ip), vehicle: Klucel (hydroxypropylcellulose) (HPC) 95 % of control

COc1cc(-c2ccc(-[n+]3nc(-c4ccc([N+](=O)[O-])cc4)nn3-c3ccc([N+](=O)[O-])cc3)c(OC)c2)ccc1-[n+]1nc(-c2ccc([N+](=O)[O-])cc2)nn1-c1ccc([N+](=O)[O-])cc1
inactive: dose: 15.0 mg/kg/injection, schedule: Q01DX001 (ip), vehicle: carboxymethylcellulose (CMC) 89 % of control | dose: 30.0 mg/kg/injection, schedule: Q01DX001 (ip), vehicle: carboxymethylcellulose (CMC) 104 % of control | dose: 60.0 mg/kg/injection, schedule: Q01DX001 (ip), vehicle: carboxymethylcellulose (CMC) 93 % of control

COc1ccc2c(c1)CC[C@@H]1[C@@H]2CC[C@]2(C)[C@@H](O)C(=O)C[C@@H]12
inactive: [11] 90 % of control | dose: 100.0 mg/kg/injection, schedule: Q04DX003 (ip), vehicle: saline 94 % of control | [12] 92 % of control | dose: 200.0 mg/kg/injection, schedule: Q04DX003 (ip), vehicle: saline 88 % of control | dose: 400.0 mg/kg/injection, schedule: Q01DX009 (ip), vehicle: saline with Tween-80 90 % of control | dose: 400.0 mg/kg/injection, schedule: Q04DX003 (ip), vehicle: saline 91 % of control

CCNC(=S)NC1CCCCCCCCCCC1
inactive: [9] 94 % of control | [10] 87 % of control

CC(C)C12CCC(=O)C=C1CCCC2OC(=O)c1ccccc1C(=O)O (centres undefined)
inactive: [4] 101 % of control | [5] 100 % of control

C/C(=N/NC(N)=S)c1cccc(C(F)(F)F)c1
inactive: dose: 37.5 mg/kg/injection, schedule: Q01DX009 (ip), vehicle: Klucel (hydroxypropylcellulose) (HPC) 97 % of control | dose: 75.0 mg/kg/injection, schedule: Q01DX009 (ip), vehicle: Klucel (hydroxypropylcellulose) (HPC) 95 % of control

c1ccc([Si]2(c3ccccc3)c3ccccc3-c3ccccc32)cc1
inactive: [4] 94 % of control | [5] 87 % of control | [6] 87 % of control

CC(C)(CC(=O)O)Cc1ccccc1
inactive: [13] 101 % of control | [11] 93 % of control | [12] 101 % of control

N#CC1(NC(=O)CCl)CCCCC1
inactive: dose: 100.0 mg/kg/injection, schedule: Q01DX001 (ip), vehicle: other 96 % of control | dose: 200.0 mg/kg/injection, schedule: Q01DX001 (ip), vehicle: other 91 % of control

CC(=O)c1ccccc1OCC(O)CN1CCN(c2ccccc2)CC1 (centres undefined)
inactive: dose: 25.0 mg/kg/injection, schedule: Q01DX009 (ip), vehicle: saline with Tween-80 94 % of control | dose: 25.0 mg/kg/injection, schedule: Q04DX003 (ip), vehicle: saline with Tween-80 100 % of control | [13] 101 % of control | dose: 50.0 mg/kg/injection, schedule: Q04DX003 (ip), vehicle: saline with Tween-80 103 % of control | [11] 101 % of control | [4] 97 % of control

CC(=O)OCC(Br)C(Br)COC(C)=O (centres undefined)
inactive: dose: 100.0 mg/kg/injection, schedule: Q01DX009 (ip), vehicle: saline 98 % of control | dose: 200.0 mg/kg/injection, schedule: Q01DX009 (ip), vehicle: saline 95 % of control | dose: 400.0 mg/kg/injection, schedule: Q01DX009 (ip), vehicle: saline 103 % of control

C=CCSc1ccccc1Cl
inactive: dose: 100.0 mg/kg/injection, schedule: Q01DX001 (ip), vehicle: saline 100 % of control | dose: 200.0 mg/kg/injection, schedule: Q01DX001 (ip), vehicle: saline 103 % of control | dose: 400.0 mg/kg/injection, schedule: Q01DX001 (ip), vehicle: saline 103 % of control

Nc1ccc(C(=O)O)c(Cl)c1
inactive: [1] 100 % of control | [2] 99 % of control | [3] 97 % of control

c1ccc([Si](c2ccccc2)(c2ccccc2)[Si](c2ccccc2)(c2ccccc2)c2ccccc2)cc1
inactive: dose: 12.5 mg/kg/injection, schedule: Q01DX009 (ip), vehicle: saline 100 % of control | dose: 25.0 mg/kg/injection, schedule: Q01DX009 (ip), vehicle: saline 93 % of control | dose: 50.0 mg/kg/injection, schedule: Q01DX009 (ip), vehicle: saline 93 % of control | dose: 100.0 mg/kg/injection, schedule: Q04DX002 (ip), vehicle: Klucel (hydroxypropylcellulose) (HPC) 98 % of control | dose: 200.0 mg/kg/injection, schedule: Q04DX002 (ip), vehicle: Klucel (hydroxypropylcellulose) (HPC) 98 % of control | dose: 400.0 mg/kg/injection, schedule: Q04DX002 (ip), vehicle: Klucel (hydroxypropylcellulose) (HPC) 87 % of control

CCOC(=O)C1CN(CCc2ccccc2)CCC1=O (centres undefined)
inactive: [14] 101 % of control | dose: 75.0 mg/kg/injection, schedule: Q04DX003 (ip), vehicle: saline 100 % of control | dose: 150.0 mg/kg/injection, schedule: Q01DX001 (ip), vehicle: saline 95 % of control | dose: 150.0 mg/kg/injection, schedule: Q04DX003 (ip), vehicle: saline 100 % of control | dose: 300.0 mg/kg/injection, schedule: Q01DX001 (ip), vehicle: saline 91 % of control | dose: 300.0 mg/kg/injection, schedule: Q04DX003 (ip), vehicle: saline 108 % of control

Cc1[nH]nc(C(=O)N(C)C)c1N=NN(C)C
inactive: [14] 116 % of control

O=C(O)c1nnn(Cc2ccccc2)n1
inactive: dose: 100.0 mg/kg/injection, schedule: Q04DX003 (ip), vehicle: acetone 94 % of control | dose: 200.0 mg/kg/injection, schedule: Q04DX003 (ip), vehicle: acetone 96 % of control | dose: 400.0 mg/kg/injection, schedule: Q04DX003 (ip), vehicle: acetone 96 % of control
